Test in all cases: biochemical
What all share (type): binding

The target in experiment [1] is 468 kinases (Homo sapiens, UniProt P19784). As to conditions: CSNK2A2; read-out: % Inhibition @ 100 nM.
Experiment [2] concerns the target 468 kinases (Homo sapiens, UniProt Q13470). The following applies: TNK1; read-out: % Inhibition @ 100 nM.
In experiment [3] the target is 468 kinases (Homo sapiens, UniProt O94921). The following applies: PFTK1; read-out: % Inhibition @ 100 nM.
The target of experiment [4] is 468 kinases (Homo sapiens, UniProt Q13163). The following applies: MEK5; read-out: % Inhibition @ 100 nM.
In experiment [5] the target is 468 kinases (Homo sapiens, UniProt Q13188). As to conditions: MST2; read-out: % Inhibition @ 100 nM.
For experiment [6], the target named is 468 kinases (Homo sapiens, UniProt Q8IY84). The following applies: NIMI; read-out: % Inhibition @ 100 nM.
Experiment [7] concerns the target 468 kinases (Homo sapiens, UniProt Q9Y6R4). As to conditions: MAP3K4; read-out: % Inhibition @ 100 nM.

`CCN(CC)CCNC(=O)c1c(C)[nH]c(/C=C2\C(=O)Nc3ccc(CCO)cc32)c1C` [Compound No. 10, (Z)—N-(2-(Diethylamino)ethyl)-5-((5-(2-hydroxyethyl)-2-oxoindolin-3-ylidene)methyl)-2,4-dimethyl-1H-pyrrole-3-carboxamide]: the values for the inhibition at 0.1 µM in experiment [1] and in experiment [2] were 0% and 9%, respectively.
As to `CCN(CC)CCNC(=O)c1c(C)[nH]c(/C=C2\C(=O)Nc3ccc(CCC(N)=O)cc32)c1C` [Compound No. 16, (Z)-5-((5-(3-Amino-3-oxopropyl)-2-oxoindolin-3-ylidene)methyl)-N-(2-(diethylamino)ethyl)-2,4-dimethyl-1H-pyrrole-3-carboxamide], the inhibition (as a rule, the change of the read-out against control, counted positive when it falls) at 0.1 µM in experiment [3] stood at 13%; in experiment [4], 80%; in experiment [5], 41%; in experiment [6], 67%; in experiment [7], 8%.
